From the supplement of paper PMC10307832

Experiments:
Assay in all cases: relative viability (nuclei count vs DMSO), 5 days (fraction); higher = more cells survive
Serdemetan + Palbociclib = compound: c1ccc2c(CCNc3ccc(Nc4ccncc4)cc3)c[nH]c2c1 [Serdemetan] + CC(=O)c1c(C)c2cnc(Nc3ccc(N4CCNCC4)cn3)nc2n(C2CCCC2)c1=O [Palbociclib] (partner 0.5 µM)
Method in brief: (§1)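 Lung cancer cell lines, seeded in 1536-well plates, were treated the following day by pin tool with a single drug or with five library-drug doses (not always all listed) in √10 steps on top of a fixed anchor-drug dose. Cells were fixed and nuclei stained in one step after 5 days, and nuclei were counted. Relative viability is the nuclei count for treated wells divided by that for vehicle wells, reported as medians of duplicate plates.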

Serdemetan + Phenformin = compound: c1ccc2c(CCNc3ccc(Nc4ccncc4)cc3)c[nH]c2c1 [Serdemetan] + N=C(N)NC(=N)NCCc1ccccc1 [Phenformin] (partner 250 µM)
Method in brief: as §1

Serdemetan + Alpelisib = compound: c1ccc2c(CCNc3ccc(Nc4ccncc4)cc3)c[nH]c2c1 [Serdemetan] + Cc1nc(NC(=O)N2CCC[C@H]2C(N)=O)sc1-c1ccnc(C(C)(C)C(F)(F)F)c1 [Alpelisib] (partner 2 µM)
Method in brief: as §1

Serdemetan + Tozasertib = compound: c1ccc2c(CCNc3ccc(Nc4ccncc4)cc3)c[nH]c2c1 [Serdemetan] + Cc1cc(Nc2cc(N3CCN(C)CC3)nc(Sc3ccc(NC(=O)C4CC4)cc3)n2)n[nH]1 [Tozasertib] (partner 0.1 µM)
Method in brief: as §1

Row | Cell Line | relative viability (Serdemetan + Palbociclib; first compound 0.04 µM) | relative viability (Serdemetan + Palbociclib; first compound 0.1265 µM) | relative viability (Serdemetan + Palbociclib; first compound 0.4 µM) | relative viability (Serdemetan + Palbociclib; first compound 1.265 µM) | relative viability (Serdemetan + Palbociclib; first compound 4 µM) | relative viability (Serdemetan + Phenformin; first compound 0.04 µM) | relative viability (Serdemetan + Phenformin; first compound 0.1265 µM) | relative viability (Serdemetan + Phenformin; first compound 0.4 µM) | relative viability (Serdemetan + Phenformin; first compound 4 µM) | relative viability (Serdemetan + Alpelisib; first compound 0.04 µM) | relative viability (Serdemetan + Alpelisib; first compound 0.1265 µM) | relative viability (Serdemetan + Alpelisib; first compound 0.4 µM) | relative viability (Serdemetan + Alpelisib; first compound 1.265 µM) | relative viability (Serdemetan + Alpelisib; first compound 4 µM) | relative viability (Serdemetan + Tozasertib; first compound 0.04 µM) | relative viability (Serdemetan + Tozasertib; first compound 0.1265 µM) | relative viability (Serdemetan + Tozasertib; first compound 0.4 µM) | relative viability (Serdemetan + Tozasertib; first compound 4 µM) | relative viability (Serdemetan + Phenformin; first compound 1.265 µM) | relative viability (Serdemetan + Tozasertib; first compound 1.265 µM)
1 | LCLC-97TM1 | 0.228 | 0.224 | 0.22 | 0.134 | 0.16 | 0.455 | 0.382 | 0.463 | 0.41 | 0.258 | 0.203 | 0.241 | 0.225 | 0.202 | 0.256 | 0.202 | 0.235 | 0.169 | – | –
2 | LCLC-103H | 0.479 | 0.474 | 0.453 | 0.389 | 0.419 | 0.336 | 0.352 | 0.343 | 0.322 | 0.944 | 0.957 | 0.923 | 0.844 | 0.764 | 0.611 | 0.605 | 0.502 | 0.402 | 0.349 | 0.448
3 | LK-2 | 0.69 | 0.704 | 0.778 | 0.517 | 0.496 | 0.318 | 0.64 | 0.423 | 0.335 | 1.1 | 1.28 | 1.25 | 1.06 | 0.652 | 0.171 | 0.176 | 0.194 | 0.168 | 0.215 | 0.207
4 | LOU-NH91 | 0.518 | 0.515 | – | – | 0.563 | 0.699 | 0.733 | 0.478 | 0.665 | 0.741 | 0.677 | – | 0.761 | 0.679 | 0.692 | 0.654 | 0.442 | 0.684 | 0.669 | 0.509
5 | LU99A | 0.431 | 0.371 | 0.308 | 0.203 | 0.22 | 0.887 | 0.891 | 0.763 | 0.354 | 0.516 | 0.576 | 0.342 | 0.175 | 0.17 | 0.321 | 0.297 | 0.265 | 0.185 | 0.417 | 0.183
6 | LXF-289 | 0.544 | 0.542 | 0.527 | 0.524 | 0.381 | 0.483 | 0.522 | 0.5 | 0.517 | 1.02 | 1.01 | 0.937 | 0.844 | 0.844 | 0.213 | 0.21 | 0.171 | 0.118 | 0.457 | 0.164
7 | NCI-H23 | 0.474 | 0.472 | 0.461 | – | 0.437 | 0.855 | 0.752 | 0.887 | 0.746 | 0.674 | 0.682 | 0.577 | 0.538 | 0.596 | 0.436 | 0.413 | 0.358 | 0.265 | 0.56 | 0.305
8 | NCI-H322M | 0.491 | 0.488 | 0.474 | 0.327 | 0.463 | 0.667 | 0.788 | 0.774 | 0.706 | 0.853 | 0.875 | 0.838 | 0.755 | 0.75 | 0.447 | 0.457 | 0.484 | 0.437 | 0.718 | 0.35
9 | NCI-H358 | 0.134 | 0.135 | 0.132 | 0.122 | 0.117 | 0.302 | 0.324 | 0.273 | 0.308 | 0.86 | 0.946 | 0.906 | 0.679 | 0.734 | 0.0807 | 0.105 | 0.111 | 0.0954 | 0.286 | 0.102
